Drawing on ChEMBL document CHEMBL1126435, “DuP 747: a new, potent, kappa opioid analgesic. Synthesis and pharmacology1” (Bioorg Med Chem Lett, 1992), this text covers Ki and ED50 for 2 compounds.

The target in assay [1] is Sigma non-opioid intracellular receptor 1 (Homo sapiens, UniProt Q99720).
Description: Compound was evaluated for the binding affinity to sigma opioid receptor
For assay [2], the system named is Rattus norvegicus. The assay is described as follows: Compound was evaluated for analgesic activity by rat tail-flick assay following subcutaneous administration. The note with it: sc. On the technique in general: In hot-plate and tail-flick tests a longer latency is read as antinociception.
Assay [3] deals with Rattus norvegicus. The assay can be described thus: Compound was evaluated for analgesic activity by rat tail-flick assay following peroral administration. The conditions noted are these: po.

Chain of Sigma non-opioid intracellular receptor 1 (Q99720 whole entry): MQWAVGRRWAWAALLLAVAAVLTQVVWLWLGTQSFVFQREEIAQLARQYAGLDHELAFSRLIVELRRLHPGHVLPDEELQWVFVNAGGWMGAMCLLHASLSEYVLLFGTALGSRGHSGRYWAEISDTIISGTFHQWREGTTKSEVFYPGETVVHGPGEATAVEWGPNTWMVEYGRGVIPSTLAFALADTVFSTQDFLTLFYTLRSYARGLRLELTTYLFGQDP

`COc1cccc2c1CC[C@H](N1CCCC1)[C@H]2N(C)C(=O)Cc1ccc(Cl)c(Cl)c1` returned a Ki in assay [1] of 5.16 µM.

Turning to `CN1CC[C@]23c4c5ccc(O)c4O[C@H]2[C@@H](O)C=C[C@H]3[C@H]1C5` [MORPHINE], the ED50 in the assay on Rattus norvegicus [2] came out at 4.9 mg/kg; in the assay with Rattus norvegicus [3] it was 54 mg/kg.

Broadly, the Ki is a measure of affinity in units of concentration, obtained from inhibition or displacement. Read a high Ki as lower affinity. For orientation: ED50 means the dose that gives a 50% effect, or the effect in half of the subjects.
